Patent US10913727B2, “Modulators of the integrated stress pathway” (Calico Life Sciences LLC, priority 2016, dated 2021)

Tested on: HEK293T cells carrying the ATF4 luciferase reporter
Assay: ATF4-Luc assay, in vitro model of Vanishing Cell White Matter Disease (VWMD)
Type: cell-based
Conditions: Homo sapiens, HEK-293T, 1 μg/mL tunicamycin, 7 hours, One Glo luminescence
How it was run: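 Reporter cells were stably generated by retroviral transduction and puromycin selection, then seeded at 30,000 cells/well. Next day, cells received 1 μg/mL tunicamycin with 200 nM test compound for 7 h, and luciferase luminescence was read with a one-step reagent. Values reported as EC50.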

Row | SMILES | EC50 [nM]
1 | O=C(COc1ccc(Cl)c(F)c1)NC12CCC(NC(=O)c3ccc(C(F)F)s3)(CC1)CC2O (stereo not shown) [Compound 623, N-{4-[2-(4-chloro-3-fluorophenoxy)acetamido]-3-hydroxybicyclo[2.2.2]octan-1-yl}-5-(difluoromethyl)thiophene-2-carboxamide] | 50 to 250
2 | O=C(COc1ccc(Cl)c(F)c1)NC12CC(NC(=O)c3ccc(OC(F)(F)F)cc3)(C1)C2 [Compound 321, N-{3-[2-(4-chloro-3-fluorophenoxy)acetamido]bicyclo[1.1.1]pentan-1-yl}-4-(trifluoromethoxy)benzamide] | 50 to 250
3 | Cc1onc(-c2ccccn2)c1C(=O)NC12CC(NC(=O)COc3ccc(Cl)c(F)c3)(C1)C2 [Compound 804, N-{3-[2-(4-chloro-3-fluorophenoxy)acetamido]bicyclo[1.1.1]pentan-1-yl}-5-methyl-3-(pyridin-2-yl)-1,2-oxazole-4-carboxamide] | > 2000
4 | O=C(COc1ccc(Cl)c(F)c1)NC12CCC(NC(=O)c3cccnn3)(CC1)C(O)C2 (stereo not shown) [Compound 227, N-{4-[2-(4-chloro-3-fluorophenoxy)acetamido]-2-hydroxybicyclo[2.2.2]octan-1-yl}pyridazine-3-carboxamide] | 250 to 1000
5 | Cc1cnc(C(=O)NC23CC(NC(=O)COc4ccc(Cl)c(F)c4)(C2)C3)s1 [Compound 469, N-{3-[2-(4-chloro-3-fluorophenoxy)acetamido]bicyclo[1.1.1]pentan-1-yl}-5-methyl-1,3-thiazole-2-carboxamide] | 250 to 1000
6 | CC(C)c1cc(C(=O)NC23CC(NC(=O)COc4ccc(Cl)c(F)c4)(C2)C3)no1 [Compound 255, N-{3-[2-(4-chloro-3-fluorophenoxy)acetamido]bicyclo[1.1.1]pentan-1-yl}-5-(propan-2-yl)-1,2-oxazole-3-carboxamide] | 250 to 1000
7 | CC(=O)N1CC=C(c2ncc(C(=O)NC34CC(NC(=O)COc5ccc(Cl)c(F)c5)(C3)C4)o2)CC1 [Compound 151, 2-(1-acetyl-1,2,3,6-tetrahydropyridin-4-yl)-N-{3-[2-(4-chloro-3-fluorophenoxy)acetamido]bicyclo[1.1.1]pentan-1-yl}-1,3-oxazole-5-carboxamide] | > 2000
8 | CC(O)c1ncc(C(=O)NC23CC(NC(=O)COc4ccc(Cl)c(F)c4)(C2)C3)s1 (stereo not shown) [Compound 476, N-{3-[2-(4-chloro-3-fluorophenoxy)acetamido]bicyclo[1.1.1]pentan-1-yl}-2-(1-hydroxyethyl)-1,3-thiazole-5-carboxamide] | 250 to 1000
9 | O=C(COc1ccc(Cl)c(Cl)c1)NC12CC(NC(=O)c3ccncn3)(C1)C2 [Compound 261, N-{3-[2-(3,4-dichlorophenoxy)acetamido]bicyclo[1.1.1]pentan-1-yl}pyrimidine-4-carboxamide] | 250 to 1000
10 | O=C(COc1ccc(Cl)c(F)c1)NC12CCC(NC(=O)c3ccccc3)(CC1)[C@@H](O)C2 [Compound 484, N-{(2S)-4-[2-(4-chloro-3-fluorophenoxy)acetamido]-2-hydroxybicyclo[2.2.2]octan-1-yl}benzamide] | 50 to 250
11 | O=C(COc1ccc(Cl)c(F)c1)NC12CCC(NC(=O)c3csc(C4CC4)n3)(CC1)CC2O (stereo not shown) [Compound 522, N-{4-[2-(4-chloro-3-fluorophenoxy)acetamido]-3-hydroxybicyclo[2.2.2]octan-1-yl}-2-cyclopropyl-1,3-thiazole-4-carboxamide] | 50 to 250
12 | O=C(COc1ccc(Cl)c(F)c1)NC12CCC(NC(=O)c3cnc(C(F)(F)F)s3)(C1)C2 [Compound 647, N-{4-[2-(4-chloro-3-fluorophenoxy)acetamido]bicyclo[2.1.1]hexan-1-yl}-2-(trifluoromethyl)-1,3-thiazole-5-carboxamide] | 250 to 1000
13 | CN(C)Cc1ccccc1C(=O)NC12CC(NC(=O)COc3ccc(Cl)c(F)c3)(C1)C2 [Compound 542, N-{3-[2-(4-chloro-3-fluorophenoxy)acetamido]bicyclo[1.1.1]pentan-1-yl}-2-[(dimethylamino)methyl]benzamide] | > 2000
14 | Cn1ncc2cccc(C(=O)NC34CC(NC(=O)COc5ccc(Cl)c(F)c5)(C3)C4)c21 [Compound 786, N-{3-[2-(4-chloro-3-fluorophenoxy)acetamido]bicyclo[1.1.1]pentan-1-yl}-1-methyl-1H-indazole-7-carboxamide] | > 2000
15 | O=C(COc1ccc(F)c(F)c1)NC12CC(NC(=O)c3ccc(OC(F)(F)F)nc3)(C1)C2 [Compound 277, N-{3-[2-(3,4-difluorophenoxy)acetamido]bicyclo[1.1.1]pentan-1-yl}-6-(trifluoromethoxy)pyridine-3-carboxamide] | 1000 to 2000
16 | Cn1cccc1C(=O)NC12CC(NC(=O)COc3ccc(Cl)c(F)c3)(C1)C2 [Compound 821, N-{3-[2-(4-chloro-3-fluorophenoxy)acetamido]bicyclo[1.1.1]pentan-1-yl}-1-methyl-1H-pyrrole-2-carboxamide] | > 2000
17 | CC(=O)NCc1ccnc(C(=O)NC23CC(NC(=O)COc4ccc(Cl)c(F)c4)(C2)C3)c1 [Compound 194, 4-(acetamidomethyl)-N-{3-[2-(4-chloro-3-fluorophenoxy)acetamido]bicyclo[1.1.1]pentan-1-yl}pyridine-2-carboxamide] | 50 to 250

Row | SMILES | EC50 [nM]
18 | COCc1cncc(C(=O)NC23CC(NC(=O)COc4ccc(Cl)c(F)c4)(C2)C3)c1 [Compound 568, N-{3-[2-(4-chloro-3-fluorophenoxy)acetamido]bicyclo[1.1.1]pentan-1-yl}-5-(methoxymethyl)pyridine-3-carboxamide] | 50 to 250
19 | O=C(COc1ccc(Cl)c(Cl)c1)NC12CC(NC(=O)c3cnccn3)(C1)C2 [Compound 164, N-{3-[2-(3,4-dichlorophenoxy)acetamido]bicyclo[1.1.1]pentan-1-yl}pyrazine-2-carboxamide] | 50 to 250
20 | O=C(COc1ccc(Cl)c(F)c1)NC12CC(NC(=O)c3ccc(O)nc3)(C1)C2 [Compound 322, N-{3-[2-(4-chloro-3-fluorophenoxy)acetamido]bicyclo[1.1.1]pentan-1-yl}-6-hydroxypyridine-3-carboxamide] | > 2000
21 | CN(C)Cc1ccc(C(=O)NC23CC(NC(=O)COc4ccc(Cl)c(F)c4)(C2)C3)cc1 [Compound 546, N-{3-[2-(4-chloro-3-fluorophenoxy)acetamido]bicyclo[1.1.1]pentan-1-yl}-4-[(dimethylamino)methyl]benzamide] | > 2000
22 | Cc1cc2c(NC34CC(NC(=O)COc5ccc6c(c5)OC(F)(F)O6)(C3)C4)nccn2n1 [Compound 422, 2-[(2,2-difluoro-2H-1,3-benzodioxol-5-yl)oxy]-N-{3-[(2-methylpyrazolo[1,5-a]pyrazin-4-yl)amino]bicyclo[1.1.1]pentan-1-yl}acetamide] | 50 to 250
23 | CCc1cc(C(=O)NC23CC(NC(=O)COc4ccc(Cl)c(F)c4)(C2)C3)on1 [Compound 323, N-{3-[2-(4-chloro-3-fluorophenoxy)acetamido]bicyclo[1.1.1]pentan-1-yl}-3-ethyl-1,2-oxazole-5-carboxamide] | 250 to 1000
24 | COc1ccnc(C(=O)NC23CCC(NC(=O)COc4ccc(Cl)c(F)c4)(CC2)C(O)C3)c1 (stereo not shown) [Compound 924, N-{4-[2-(4-chloro-3-fluorophenoxy)acetamido]-3-hydroxybicyclo[2.2.2]octan-1-yl}-4-methoxypyridine-2-carboxamide] | > 2000
25 | Cc1nnc(C(=O)NC23CC(NC(=O)COc4ccc(Cl)c(F)c4)(C2)C3)o1 [Compound 354, N-{3-[2-(4-chloro-3-fluorophenoxy)acetamido]bicyclo[1.1.1]pentan-1-yl}-5-methyl-1,3,4-oxadiazole-2-carboxamide] | 1000 to 2000
26 | O=C(COc1ccc(Cl)c(F)c1)NC12CC(NC(=O)c3cncnc3)(C1)C2 [Compound 188, N-{3-[2-(4-chloro-3-fluorophenoxy)acetamido]bicyclo[1.1.1]pentan-1-yl}pyrimidine-5-carboxamide] | 250 to 1000
27 | O=C(COc1ccc(Cl)c(F)c1)NC12CC(NC(=O)c3ccn4nccc4n3)(C1)C2 [Compound 631, N-{3-[2-(4-chloro-3-fluorophenoxy)acetamido]bicyclo[1.1.1]pentan-1-yl}pyrazolo[1,5-a]pyrimidine-5-carboxamide] | 50 to 250
28 | Cc1cc(C(=O)NC23CCC(NC(=O)COc4ccc(Cl)c(F)c4)(CC2)[C@@H](O)C3)n(C)n1 (single isomer, unassigned) [Compound 485] | < 50
29 | Cc1nocc1C(=O)NC12CC(NC(=O)COc3ccc(Cl)c(F)c3)(C1)C2 [Compound 879, N-{3-[2-(4-chloro-3-fluorophenoxy)acetamido]bicyclo[1.1.1]pentan-1-yl}-3-methyl-1,2-oxazole-4-carboxamide] | > 2000
30 | Cn1nc2ccccc2c1C(=O)NC12CC(NC(=O)COc3ccc(Cl)c(F)c3)(C1)C2 [Compound 896, N-{3-[2-(4-chloro-3-fluorophenoxy)acetamido]bicyclo[1.1.1]pentan-1-yl}-2-methyl-2H-indazole-3-carboxamide] | 1000 to 2000
31 | O=C(COc1ccc(Cl)c(F)c1)NC12CC(NC(=O)c3cc(N4CCCC4)ccn3)(C1)C2 [Compound 181, N-{3-[2-(4-chloro-3-fluorophenoxy)acetamido]bicyclo[1.1.1]pentan-1-yl}-4-(pyrrolidin-1-yl)pyridine-2-carboxamide] | 250 to 1000
32 | COc1ccc(C(=O)NC23CC(NC(=O)COc4ccc(Cl)c(F)c4)(C2)C3)cc1 [Compound 533, N-{3-[2-(4-chloro-3-fluorophenoxy)acetamido]bicyclo[1.1.1]pentan-1-yl}-4-methoxybenzamide] | 50 to 250
33 | COCn1ccc(C(=O)NC23CC(NC(=O)COc4ccc(Cl)c(F)c4)(C2)C3)n1 [Compound 260, N-{3-[2-(4-chloro-3-fluorophenoxy)acetamido]bicyclo[1.1.1]pentan-1-yl}-1-(methoxymethyl)-1H-pyrazole-3-carboxamide] | 250 to 1000
34 | Cn1nc(C(F)F)cc1C(=O)NC12CCC(NC(=O)COc3ccc(Cl)c(F)c3)(CC1)C[C@@H]2O [Compound 413, N-{(2S)-4-[2-(4-chloro-3-fluorophenoxy)acetamido]-2-hydroxybicyclo[2.2.2]octan-1-yl}-3-(difluoromethyl)-1-methyl-1H-pyrazole-5-carboxamide] | < 50
